Laboratory results from patent publication US20040024024A1, “Aromatic sulfone hydroxamates and their use as protease inhibitors” (priority 2001, published 2004).

What was measured:
Test in all cases: In vitro MMP inhibition, IC50 determination (fluorogenic substrate I)
Type in all cases: biochemical
Human recombinant MMP-13 = biological target: T1, Human recombinant MMP-13 (Homo sapiens, UniProt P45452)
T1 construct: made in house; host or cells: baculovirus / insect cells
Method in brief: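 Fluorescence at 415 nm (excitation 328 nm) reports Gly-Leu cleavage of 4 μM quenched methoxycoumarin peptide substrate I. Human recombinant MMP-13, activated by trypsin or APMA, was incubated at room temperature with varied inhibitor concentrations in pH 7.5 Tris/NaCl/CaCl2 buffer; IC50 derived from reduced fluorescence.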

Human recombinant MMP-1 = biological target: T2, Human recombinant MMP-1 (Homo sapiens, UniProt P03956)
T2 construct: made in house; host or cells: MMP-1-transfected HT-1080 cells (spent media)
T2 sequence (P03956 100-469): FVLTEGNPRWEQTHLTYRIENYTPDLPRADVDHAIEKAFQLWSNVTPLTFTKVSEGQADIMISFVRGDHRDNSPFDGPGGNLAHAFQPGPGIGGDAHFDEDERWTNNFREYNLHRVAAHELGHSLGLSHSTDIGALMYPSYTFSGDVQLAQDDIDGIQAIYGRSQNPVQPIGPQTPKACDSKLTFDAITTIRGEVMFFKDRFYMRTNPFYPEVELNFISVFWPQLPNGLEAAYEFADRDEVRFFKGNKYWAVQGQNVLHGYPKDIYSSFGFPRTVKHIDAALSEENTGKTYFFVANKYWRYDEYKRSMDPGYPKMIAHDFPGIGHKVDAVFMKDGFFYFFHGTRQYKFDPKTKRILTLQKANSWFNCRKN
Method in brief: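 Inhibitor dilutions were made in 100 mM Tris-HCl/100 mM NaCl/10 mM CaCl2 buffer, pH 7.5, and incubated at room temperature with activated proenzyme (from transfected HT-1080 media; APMA or trypsin) and 4 μM quenched methoxycoumarin peptide substrate. Loss of 415 nm fluorescence (328 nm excitation) against concentration gave IC50.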

Human recombinant MMP-14 = biological target: T3, Human recombinant MMP-14 (Homo sapiens, UniProt P50281)
T3 construct: The catalytic domain enzyme was expressed in E. coli inclusion bodies, solubilized in urea; made in house
Method in brief: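 IC50 came from reduced fluorescence (ex 328 nm, em 415 nm) as inhibitor concentration rose, with 4 μM substrate I cleaved at Gly-Leu. Room-temperature incubation in pH 7.5 Tris buffer with 10 mM CaCl2; the E. coli-expressed, refolded MMP-14 catalytic domain was activated with trypsin or APMA.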

Human recombinant MMP-9 = biological target: T4, Human recombinant MMP-9 (Homo sapiens, UniProt P14780)
T4 construct: made in house; host or cells: MMP-9-transfected HT1080 cells (spent media)
T4 sequence (P14780 107-707 limits assumed): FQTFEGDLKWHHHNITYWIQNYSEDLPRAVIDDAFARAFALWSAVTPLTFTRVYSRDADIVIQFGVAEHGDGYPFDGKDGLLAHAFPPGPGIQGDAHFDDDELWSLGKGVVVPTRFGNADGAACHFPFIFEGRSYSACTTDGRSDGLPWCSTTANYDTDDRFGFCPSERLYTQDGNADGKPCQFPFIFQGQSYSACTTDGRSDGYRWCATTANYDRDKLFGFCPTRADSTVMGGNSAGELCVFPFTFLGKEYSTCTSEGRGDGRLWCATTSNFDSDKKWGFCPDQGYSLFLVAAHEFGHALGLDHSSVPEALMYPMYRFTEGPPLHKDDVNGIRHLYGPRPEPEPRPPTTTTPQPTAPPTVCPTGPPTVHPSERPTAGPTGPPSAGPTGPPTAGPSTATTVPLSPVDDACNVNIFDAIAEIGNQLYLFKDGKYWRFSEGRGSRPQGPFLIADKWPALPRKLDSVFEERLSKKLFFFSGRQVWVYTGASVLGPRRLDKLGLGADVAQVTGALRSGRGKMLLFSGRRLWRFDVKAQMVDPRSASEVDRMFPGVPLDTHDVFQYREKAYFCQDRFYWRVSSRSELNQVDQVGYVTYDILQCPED
Method in brief: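 Reduction in fluorescence (328 nm excitation, 415 nm emission) from cleavage of 4 μM quenched peptide substrate I, measured at room temperature against inhibitor concentration, gave IC50. Enzyme: trypsin- or APMA-activated MMP-9 purified from transfected HT1080 medium; buffer 100 mM Tris, 100 mM NaCl, 10 mM CaCl2, pH 7.5.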

Human recombinant MMP-2 = biological target: T5, Human recombinant MMP-2 (Homo sapiens, UniProt P08253)
T5 construct: made in house; host or cells: MMP-2-transfected p2AHT2 cells
T5 sequence (P08253 110-660): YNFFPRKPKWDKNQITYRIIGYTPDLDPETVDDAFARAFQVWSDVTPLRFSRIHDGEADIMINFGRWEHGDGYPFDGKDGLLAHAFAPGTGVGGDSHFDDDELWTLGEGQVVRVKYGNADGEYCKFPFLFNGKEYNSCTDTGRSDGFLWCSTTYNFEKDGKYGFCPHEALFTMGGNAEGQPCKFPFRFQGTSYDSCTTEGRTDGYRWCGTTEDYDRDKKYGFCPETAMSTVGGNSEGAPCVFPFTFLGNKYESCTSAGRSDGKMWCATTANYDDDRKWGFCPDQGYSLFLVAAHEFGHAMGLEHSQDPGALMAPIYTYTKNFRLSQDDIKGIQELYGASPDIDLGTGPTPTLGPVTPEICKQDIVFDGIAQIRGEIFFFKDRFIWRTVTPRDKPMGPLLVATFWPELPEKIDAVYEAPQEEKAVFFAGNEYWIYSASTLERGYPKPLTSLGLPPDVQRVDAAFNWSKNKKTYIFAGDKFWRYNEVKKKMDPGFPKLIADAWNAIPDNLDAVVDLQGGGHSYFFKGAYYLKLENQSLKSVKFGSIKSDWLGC
Method in brief: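 IC50 was derived from the concentration-dependent fall in fluorescence (ex 328, em 415 nm) on Gly-Leu cleavage of 4 μM MCA/Dpa-quenched substrate I. Assays ran at room temperature in pH 7.5 Tris/NaCl/CaCl2/Brij buffer with MMP-2 activated by trypsin or APMA; inhibitors were diluted from 1% DMSO stocks.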

[1] = value outside parentheses (Ki in parenthesis)

Compound	IC50 (Human recombinant MMP-13; value outside parenthesis) [µM]	IC50 (Human recombinant MMP-1; value outside parenthesis) [µM]	IC50 (Human recombinant MMP-14; value outside parenthesis) [µM]	IC50 (Human recombinant MMP-9; value outside parenthesis) [µM]	IC50 (Human recombinant MMP-2; value outside parenthesis) [µM]	IC50 (Human recombinant MMP-13; [1]) [µM]	IC50 (Human recombinant MMP-1; [1]) [µM]	IC50 (Human recombinant MMP-14; [1]) [µM]	IC50 (Human recombinant MMP-9; [1]) [µM]	IC50 (Human recombinant MMP-2; [1]) [µM]
COc1ccc(C(=O)CCCCOc2ccc(S(=O)(=O)C3(C(=O)NO)CCN(C4CC4)CC3)cc2)cc1 [Example 277]	0.0002	> 10	> 10	0.0415	0.0035	–	–	–	–	–
CC(C)(C)c1ccc(-c2nnc(CCCOc3ccc(S(=O)(=O)C4(C(=O)NO)CCOCC4)cc3)o2)cc1 [Example 278]	0.0037	> 10	> 10	0.494	0.208	–	–	–	–	–
COc1cccc(-c2nnc(CCCOc3ccc(S(=O)(=O)C4(C(=O)NO)CCOCC4)cc3)o2)c1 [Example 280]	0.0015	> 10	> 10	2.03	0.17	–	–	–	–	–
O=C(NO)C1(S(=O)(=O)c2ccc(OCCSc3nc4cc(Cl)ccc4s3)cc2)CCOCC1 [Example 281]	0.0013	> 10	> 10	0.276	0.0704	–	–	–	–	–
COc1ccc2sc(SCCOc3ccc(S(=O)(=O)C4(C(=O)NO)CCOCC4)cc3)nc2c1 [Example 282]	0.0026	> 10	> 10	0.704	0.0433	–	–	–	–	–
O=C(NO)C1(S(=O)(=O)c2ccc(OCCCSc3nc4cc(Cl)ccc4s3)cc2)CCOCC1 [Example 284]	0.0011	> 10	> 10	0.0185	0.0101	–	–	–	–	–
COc1ccc2sc(SCCCOc3ccc(S(=O)(=O)C4(C(=O)NO)CCOCC4)cc3)nc2c1 [Example 285]	0.0018	> 10	> 10	0.0236	0.0167	–	–	–	–	–
Cc1cc(C)nc(SCCCOc2ccc(S(=O)(=O)C3(C(=O)NO)CCOCC3)cc2)n1 [Example 286]	0.004	> 10	> 10	1.13	0.0749	–	–	–	–	–
CCOc1ccc2nc(SCCCOc3ccc(S(=O)(=O)C4(C(=O)NO)CCOCC4)cc3)sc2c1 [Example 287]	0.0008	> 10	> 10	0.0164	0.0036	–	–	–	–	–
O=C(NO)C1(S(=O)(=O)c2ccc(OCCCSc3nc4ccccc4s3)cc2)CCOCC1 [Example 288]	0.0008	> 10	> 10	0.0106	0.0023	–	–	–	–	–
CN(CCCOc1ccc(S(=O)(=O)C2(C(=O)NO)CCOCC2)cc1)C(=O)c1ccc2ccccc2c1 [Example 289]	0.0101	> 10	> 10	> 10	2.72	–	–	–	–	–
CN(CCc1ccccc1)S(=O)(=O)CCCOc1ccc(S(=O)(=O)C2(C(=O)NO)CCOCC2)cc1 [Example 292]	–	–	–	–	–	0.0024	0.97	> 10	0.163	0.0144
O=C(NO)C1(S(=O)(=O)c2ccc(OCCCS(=O)(=O)C3CCCCC3)cc2)CCOCC1 [Example 293]	–	–	–	–	–	0.0026	6.15	> 10	0.448	0.0023
Cc1cc(-c2nnc(CCCOc3ccc(S(=O)(=O)C4(C(=O)NO)CCOCC4)cc3)o2)ccc1OC(C)C [Example 294]	–	–	–	–	–	0.0043	4.62	> 10	0.448	0.1
CCCC(=O)C(C)CCOc1ccc(S(=O)(=O)C2(C(=O)NO)CCOCC2)cc1 (stereo not shown) [Example 295]	–	–	–	–	–	0.0026	> 10	> 10	0.172	0.0156
O=C(CCCOc1ccc(S(=O)(=O)C2(C(=O)NO)CCOCC2)cc1)c1cccs1 [Example 297]	–	–	–	–	–	0.0005	6.81	6.56	0.0646	0.0081
COc1ccc(CC(=O)CCCOc2ccc(S(=O)(=O)C3(C(=O)NO)CCOCC3)cc2)cc1 [Example 301]	–	–	–	–	–	< 0.0001	3.66	0.32	0.0091	0.0002
O=C(CCCOc1ccc(S(=O)(=O)C2(C(=O)NO)CCOCC2)cc1)Cc1ccc(Cl)cc1 [Example 302]	–	–	–	–	–	0.0001	2.73	0.0949	0.0029	0.0002
COc1ccc(C(=O)C(C)CCOc2ccc(S(=O)(=O)C3(C(=O)NO)CCOCC3)cc2)cc1 (stereo not shown) [Example 306]	–	–	–	–	–	0.0017	> 10	> 10	0.185	0.0929
N#Cc1ccc(N2CCN(CCCOc3ccc(S(=O)(=O)C4(C(=O)NO)CCOCC4)cc3)C2=O)cc1 [Example 307]	–	–	–	–	–	0.0045	8.13	> 10	0.139	0.135
C[C@@H]1[C@H](c2ccccc2)OC(=O)N1CCCOc1ccc(S(=O)(=O)C2(C(=O)NO)CCOCC2)cc1 [Example 308]	–	–	–	–	–	0.0037	> 10	> 10	1.6	0.176
C[C@H]1[C@@H](c2ccccc2)OC(=O)N1CCCOc1ccc(S(=O)(=O)C2(C(=O)NO)CCOCC2)cc1 [Example 309]	–	–	–	–	–	0.0018	> 10	> 10	1.56	0.135
CC(C)(C)C1CCN(S(=O)(=O)CCCOc2ccc(S(=O)(=O)C3(C(=O)NO)CCOCC3)cc2)CC1 [Example 310]	–	–	–	–	–	0.003	> 10	> 10	1.98	0.032
